Assay [1] has as its target CYP2D6 (Homo sapiens, UniProt P10635). The assay can be described thus: biochemical.
Method: (§1) The ability of the compounds described herein to inhibit cytochrome P450 activity was determined in vitro using cDNA-expressed human cytochrome P450 enzymes (Supersomes) obtained from GENTEST Corporation and various fluorescent probe substrates. Fluorometric Cytochrome P450 Inhibition assays were conducted in 96 well micotitre plates as described by GENTEST Corporation, Woburn Mass. […] Compounds were dissolved in 70% DMSO such that the concentration of DMSO in the assay was 0.7%. Varying concentrations of all test compounds (10 μM, 3 μM, 1 μM, 300 nM and 100 nM) were incubated with Supersomes individually expressing the five principal drug metabolizing cytochrome P450s, CYP1A2, 2C9, 2C19, 2D6, and 3A4 and their respective substrates. […] Incubations with known inhibitors of each P450 isoform were included as positive controls. Fluorescence per well was measured using a Spectramax Gemini XS (Molecular Devices) and IC50 values of the compounds tested were determined using the 5 point dose response. The sigmoidal dose response curves were generated by non linear regression using a four parameter logistic equation.
For assay [2], the target named is CYP2C19 (Homo sapiens, UniProt P33261). The assay can be described thus: biochemical.
Method: as §1
The target in assay [3] is T1, CYP2C9 (Homo sapiens, UniProt P11712).
T1 construct: purchased GENTEST Corporation P258
Kind of assay: Fluorometric cytochrome P450 inhibition assay, CYP2C9. In kind it is in vitro ADME. The settings on record: cDNA-expressed human CYP2C9 Supersomes, substrate DBF, 5 point dose response; read-out: CYP2C9 Inh. IC50.
Method: The ability of the compounds described herein to inhibit cytochrome P450 activity was determined in vitro using cDNA-expressed human cytochrome P450 enzymes (Supersomes) obtained from GENTEST Corporation and various fluorescent probe substrates. Fluorometric Cytochrome P450 Inhibition assays were conducted in 96 well micotitre plates as described by GENTEST Corporation, Woburn Mass. […] Compounds were dissolved in 70% DMSO such that the concentration of DMSO in the assay was 0.7%. […] Incubations with known inhibitors of each P450 isoform were included as positive controls. Fluorescence per well was measured using a Spectramax Gemini XS (Molecular Devices) and IC50 values of the compounds tested were determined using the 5 point dose response. The sigmoidal dose response curves were generated by non linear regression using a four parameter logistic equation.

For assay [4], the target named is CYP3A4 (Homo sapiens, UniProt P08684). The assay can be described thus: biochemical.
Sequence of CYP3A4 (P08684 whole entry): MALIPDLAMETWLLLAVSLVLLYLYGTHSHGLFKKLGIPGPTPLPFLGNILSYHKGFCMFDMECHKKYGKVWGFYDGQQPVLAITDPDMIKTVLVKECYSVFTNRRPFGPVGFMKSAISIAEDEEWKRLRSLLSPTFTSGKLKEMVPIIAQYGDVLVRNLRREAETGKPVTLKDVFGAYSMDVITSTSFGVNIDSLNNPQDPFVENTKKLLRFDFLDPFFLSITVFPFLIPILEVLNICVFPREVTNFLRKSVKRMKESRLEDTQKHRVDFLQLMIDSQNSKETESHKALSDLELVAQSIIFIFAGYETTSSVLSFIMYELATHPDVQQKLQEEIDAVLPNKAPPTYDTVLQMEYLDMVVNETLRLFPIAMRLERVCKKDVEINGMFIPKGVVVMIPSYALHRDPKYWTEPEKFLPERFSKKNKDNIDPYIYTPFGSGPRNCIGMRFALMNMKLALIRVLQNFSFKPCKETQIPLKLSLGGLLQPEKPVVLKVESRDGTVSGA
Method: as §1
Assay [5] addresses T2, CYP1A2 (Homo sapiens, UniProt P05177).
T2 sequence (P05177 1-516): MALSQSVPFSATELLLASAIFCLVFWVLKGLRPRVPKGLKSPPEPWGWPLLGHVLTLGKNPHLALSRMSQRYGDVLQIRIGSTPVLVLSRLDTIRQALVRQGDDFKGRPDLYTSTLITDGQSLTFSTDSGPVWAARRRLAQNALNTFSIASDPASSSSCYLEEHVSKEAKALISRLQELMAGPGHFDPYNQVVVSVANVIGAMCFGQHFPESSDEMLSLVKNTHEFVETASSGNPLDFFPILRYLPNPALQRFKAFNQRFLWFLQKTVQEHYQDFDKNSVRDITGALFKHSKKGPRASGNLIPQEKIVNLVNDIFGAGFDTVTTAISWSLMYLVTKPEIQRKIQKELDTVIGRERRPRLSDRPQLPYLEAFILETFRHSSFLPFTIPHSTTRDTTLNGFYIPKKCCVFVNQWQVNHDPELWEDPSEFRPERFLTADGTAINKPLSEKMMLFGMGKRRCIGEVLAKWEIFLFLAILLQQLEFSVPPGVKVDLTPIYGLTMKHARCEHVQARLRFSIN
The assay can be described thus: biochemical.
Method: as §1

For 23 compounds, IC50 results are on record in patent publication US20050019424A1, “Anti-angiogenesis combination therapies comprising pyridazine or pyridine derivatives” (priority 2001, published 2005).

T1 sequence (P11712 whole entry): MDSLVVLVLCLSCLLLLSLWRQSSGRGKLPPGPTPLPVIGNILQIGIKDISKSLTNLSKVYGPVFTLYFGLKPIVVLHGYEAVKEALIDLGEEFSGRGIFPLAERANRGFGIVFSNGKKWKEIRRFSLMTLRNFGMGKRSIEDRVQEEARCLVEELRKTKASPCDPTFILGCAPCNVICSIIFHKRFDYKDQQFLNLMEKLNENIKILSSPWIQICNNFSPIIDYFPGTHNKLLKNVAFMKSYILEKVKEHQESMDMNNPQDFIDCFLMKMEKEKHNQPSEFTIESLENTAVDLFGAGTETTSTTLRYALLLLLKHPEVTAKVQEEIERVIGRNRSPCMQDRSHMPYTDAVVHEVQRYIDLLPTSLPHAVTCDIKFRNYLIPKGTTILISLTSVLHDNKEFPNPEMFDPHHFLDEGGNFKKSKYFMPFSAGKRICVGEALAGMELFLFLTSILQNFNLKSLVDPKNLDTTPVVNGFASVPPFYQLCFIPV
Sequence of CYP2C19 (P33261 whole entry): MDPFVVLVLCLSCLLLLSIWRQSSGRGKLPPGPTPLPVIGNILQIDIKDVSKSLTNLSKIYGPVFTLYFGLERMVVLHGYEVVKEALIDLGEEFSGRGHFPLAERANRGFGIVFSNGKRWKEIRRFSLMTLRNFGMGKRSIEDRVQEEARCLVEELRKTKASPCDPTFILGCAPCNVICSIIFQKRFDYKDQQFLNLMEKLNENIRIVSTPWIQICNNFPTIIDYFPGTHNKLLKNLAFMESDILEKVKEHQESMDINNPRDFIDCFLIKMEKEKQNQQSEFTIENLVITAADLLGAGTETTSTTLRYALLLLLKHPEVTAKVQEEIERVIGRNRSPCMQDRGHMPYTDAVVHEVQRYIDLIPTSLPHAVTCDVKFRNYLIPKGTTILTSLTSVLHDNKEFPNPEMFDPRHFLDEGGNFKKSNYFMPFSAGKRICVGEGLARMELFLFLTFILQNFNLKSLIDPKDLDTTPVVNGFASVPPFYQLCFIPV
Sequence of CYP2D6 (P10635 whole entry): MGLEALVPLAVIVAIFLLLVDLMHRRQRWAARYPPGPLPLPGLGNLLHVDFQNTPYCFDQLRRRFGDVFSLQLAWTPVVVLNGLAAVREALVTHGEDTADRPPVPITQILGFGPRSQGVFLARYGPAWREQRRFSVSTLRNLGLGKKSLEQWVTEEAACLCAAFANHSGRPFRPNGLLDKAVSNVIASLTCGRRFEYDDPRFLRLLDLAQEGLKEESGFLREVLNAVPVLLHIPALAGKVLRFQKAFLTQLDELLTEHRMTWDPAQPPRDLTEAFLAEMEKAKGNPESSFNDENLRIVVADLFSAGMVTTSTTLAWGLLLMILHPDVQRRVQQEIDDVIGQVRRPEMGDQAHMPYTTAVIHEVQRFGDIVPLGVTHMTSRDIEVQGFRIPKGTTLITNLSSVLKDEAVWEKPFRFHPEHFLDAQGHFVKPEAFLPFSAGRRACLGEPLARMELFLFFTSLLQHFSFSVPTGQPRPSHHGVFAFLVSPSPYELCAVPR

As usually defined, the IC50 is the midpoint of a concentration-inhibition curve. In the case of `NC(=O)c1cc(Cc2nnc(Nc3ccc(Cl)cc3)c3ccccc23)ccn1`, the half-inhibitory concentration (IC50) in assay [1] is greater than 20 µM; in assay [2], 15 µM; in assay [3] it was greater than 20 µM; in assay [4], 10000 nM; in assay [5], greater than 20 µM.

With `CNC(=O)c1cc(Cc2nnc(Nc3ccc(Cl)cc3)c3ccccc23)ccn1`, the concentration for half-maximal inhibition (IC50) in assay [1] is greater than 20 µM; in assay [2], 11 µM; in assay [3], 5.7 µM; in assay [4] it was 2200 nM; in assay [5] it was greater than 20 µM.

Consider `NC(=O)c1cc(COc2nnc(Nc3ccc(Cl)cc3)c3ccccc23)ccn1`, for which the 50% inhibitory concentration (IC50) in assay [1] amounted to 1.3 µM; in assay [2] it was 5.4 µM; in assay [3], 0.95 µM; in assay [4], 420 nM; in assay [5] it was 1.5 µM.

`CNC(=O)c1cc(COc2nnc(Nc3ccc(Cl)cc3)c3ccccc23)ccn1`: the IC50 in assay [1] is greater than 20 µM; in assay [2], greater than 20 µM; in assay [3], greater than 20 µM; in assay [4], greater than 20000 nM; in assay [5] it was greater than 20 µM.

In the case of `Clc1ccc(NC2=NN=C(OCc3ccncc3)C3OC=CC23)cc1` (stereo not shown), the half-maximal inhibitory concentration (IC50) in assay [1] was found to be 0.78 µM; in assay [2], 1.7 µM; in assay [3], 0.68 µM; in assay [4], 390 nM; in assay [5], 0.66 µM.

Consider `NC(=O)c1cc(COC2=NN=C(Nc3ccc(Cl)cc3)C3C=COC23)ccn1` (stereo not shown), for which the concentration for half-maximal inhibition (IC50) was greater than 20 µM in assay [1]; greater than 20 µM in assay [2]; greater than 20 µM in assay [3]; 2100 nM in assay [4]; 17 µM in assay [5].

`CNC(=O)c1cc(COC2=NN=C(Nc3ccc(Cl)cc3)C3C=COC23)ccn1` (stereo not shown): the IC50 in assay [1] was greater than 20 µM; in assay [2] it was greater than 20 µM; in assay [3] it was greater than 20 µM; in assay [4], 19000 nM; in assay [5], greater than 20 µM.

For `CN(C)C(=O)c1cc(COC2=NN=C(Nc3ccc(Cl)cc3)C3C=COC23)ccn1` (stereo not shown), the concentration for half-maximal inhibition (IC50) was greater than 20 µM in assay [1]; greater than 20 µM in assay [2]; greater than 20 µM in assay [3]; 11000 nM in assay [4]; 3.5 µM in assay [5].

Turning to `O=C(NC1CC1)c1cc(COC2=NN=C(Nc3ccc(Cl)cc3)C3C=COC23)ccn1` (stereo not shown), the IC50 in assay [1] is greater than 20 µM; in assay [2], greater than 20 µM; in assay [3], greater than 20 µM; in assay [4] it was 3300 nM; in assay [5], greater than 20 µM.

As to `Clc1ccc(NC2=NN=C(OCc3ccncc3)C3SC=CC23)cc1` (stereo not shown), the 50% inhibitory concentration (IC50) in assay [1] worked out at 0.4 µM; in assay [2], 7.5 µM; in assay [3], 0.46 µM; in assay [4], 120 nM; in assay [5], 0.5 µM.

On to `NC(=O)c1cc(COC2=NN=C(Nc3ccc(Cl)cc3)C3C=CSC23)ccn1` (stereo not shown), for which the concentration for half-maximal inhibition (IC50) in assay [1] was 14 µM; in assay [2], greater than 20 µM; in assay [3], 4.7 µM; in assay [4] it was 1000 nM; in assay [5] it was 3.3 µM.

With `CNC(=O)c1cc(COC2=NN=C(Nc3ccc(Cl)cc3)C3C=CSC23)ccn1` (stereo not shown), the half-inhibitory concentration (IC50) in assay [1] was greater than 20 µM; in assay [2], greater than 20 µM; in assay [3], greater than 20 µM; in assay [4] it was greater than 20000 nM; in assay [5] it was greater than 20 µM.

`Clc1ccc(Nc2ncc(Cc3ccncc3)c3ccccc23)cc1`: the IC50 in assay [1] is 0.21 µM; in assay [2], 0.07 µM; in assay [3] it was 0.11 µM; in assay [4], 140 nM; in assay [5], 0.17 µM.

In the case of `NC(=O)c1cc(Cc2cnc(Nc3ccc(Cl)cc3)c3ccccc23)ccn1`, the half-inhibitory concentration (IC50) in assay [1] was determined as 15 µM; in assay [2], 1.2 µM; in assay [3], 1.9 µM; in assay [4] it was 1200 nM; in assay [5], 3.3 µM.

Regarding `CNC(=O)c1cc(Cc2cnc(Nc3ccc(Cl)cc3)c3ccccc23)ccn1`, the IC50 turned out to be 10 µM in assay [1]; 0.85 µM in assay [2]; 1.6 µM in assay [3]; 1300 nM in assay [4]; 3.8 µM in assay [5].

Take `Clc1ccc(Nc2nnc(Nc3ccc4ncsc4c3)c3sccc23)cc1`: the IC50 is greater than 20 µM in assay [1]; 9.9 µM in assay [2]; 3.9 µM in assay [3]; greater than 20000 nM in assay [4]; greater than 20 µM in assay [5].

As for `CNC(=O)c1cc(COc2nnc(Nc3ccc(OC)cc3)c3ccoc23)ccn1`, the half-inhibitory concentration (IC50) in assay [1] is greater than 20 µM; in assay [2], greater than 20 µM; in assay [3], greater than 20 µM; in assay [4] it was 1800 nM; in assay [5], 4.2 µM.

Regarding `CNC(=O)c1cc(COc2nnc(Nc3ccc(F)cc3)c3ccoc23)ccn1`, the half-maximal inhibitory concentration (IC50) was greater than 20 µM in assay [1], greater than 20 µM in assay [3], greater than 20000 nM in assay [4] and greater than 20 µM in assay [5].

As to `CNC(=O)c1cc(COc2nnc(Nc3cccc(C)c3)c3ccsc23)ccn1`, the IC50 in assay [1] is greater than 20 µM; in assay [3] it was greater than 20 µM; in assay [4] it was greater than 20000 nM; in assay [5] it was greater than 20 µM.

Take `CNC(=O)c1cc(COc2nnc(Nc3ccc4c(c3)CCC4)c3ccoc23)ccn1`: the IC50 in assay [1] was greater than 20 µM; in assay [2], greater than 20 µM; in assay [3], 4 µM; in assay [4], 480 nM; in assay [5], 4.5 µM.

Turning to `CNC(=O)c1cc(COc2nnc(Nc3ccc4c(c3)OCC4)c3ccoc23)ccn1`, the concentration for half-maximal inhibition (IC50) in assay [1] was greater than 20 µM; in assay [2], greater than 20 µM; in assay [3], greater than 20 µM; in assay [4], 7600 nM; in assay [5], 11 µM.

Take `Clc1ccc(Nc2nnc(Cc3ccncc3)c3ccccc23)cc1` [WO 98/35958 (Example 4), reference compound]: the IC50 in assay [1] was found to be 0.33 µM; in assay [2], 0.24 µM; in assay [3] it was 0.65 µM; in assay [5], 1.49 µM.

With `Clc1ccc(Nc2nnc(OCc3ccncc3)c3ccccc23)cc1` [WO 98/35958 (Example 50), reference compound], the IC50 turned out to be 0.33 µM in assay [1]; 0.79 µM in assay [2]; 0.29 µM in assay [3]; 70 nM in assay [4]; 0.24 µM in assay [5].
